Measured values taken from patent US20090030039A1, “Piperidine Derivatives as Cxcr3 Receptor Antagonists” (priority 2006, published 2009).

The molecules below were run against T1, human CXCR3 (Homo sapiens, UniProt P49682) (assay: [35S]GTPγS exchange assay, CXCR3 receptor inhibition (hI-TAC-induced GTPγS-binding)). Settings: -log IC50 (molar) inhibiting 50% of specific I-TAC-induced GTPγS-binding; membranes of human CXCR3-transfected CHO cells.
T1 construct: expressed in transfected cells; host or cells: CHO cells (membrane preparation)
T1 sequence (P49682 1-368): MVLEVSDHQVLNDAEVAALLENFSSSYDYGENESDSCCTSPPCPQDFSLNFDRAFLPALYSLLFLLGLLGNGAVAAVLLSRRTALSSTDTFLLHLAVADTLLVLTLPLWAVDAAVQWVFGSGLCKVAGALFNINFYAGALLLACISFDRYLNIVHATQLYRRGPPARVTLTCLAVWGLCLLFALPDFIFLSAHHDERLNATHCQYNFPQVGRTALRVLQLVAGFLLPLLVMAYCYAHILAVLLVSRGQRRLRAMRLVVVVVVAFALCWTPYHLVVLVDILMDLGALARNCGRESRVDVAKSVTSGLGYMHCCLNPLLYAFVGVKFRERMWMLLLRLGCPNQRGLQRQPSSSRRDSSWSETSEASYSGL
Format: biochemical
Method: CXCR3 Receptor Inhibition was Examined in a [^35S]GTPγS Exchange Assay
The exchange of guanosine 5′-[^35S]triphosphate was measured on membranes of human CXCR3-transfected CHO cells. [^35S]GTPγS exchange assays were performed in 96-well plates with 10 μg of membrane protein/well using basic flashplates (Perkin Elmer). Compounds were dissolved in DMSO and diluted with incubation buffer to yield required concentrations with 9% DMSO. Incubation buffer is composed of 20 mM HEPES, 100 mM NaCl, 3 μM GDP and 1 mM MgCl2, pH 7.4. […] Compound, membranes, hI-TAC (interferon-inducible T-cell alpha chemoattractant) and [^35S]GTPγS were added in a total volume of 200 μl. First, 20 μl of the appropriate compound dilution and 140 μl membranes from CXCR3-CHO cells were dissolved in membrane incubation buffer and pre-incubated for 30 minutes at 30° C. Then, 20 μl of hI-TAC dissolved at 30 nM in incubation buffer was added to the membranes and the mixture containing 1% of DMSO was incubated for another 30 minutes at 30° C. […] After 1 minute shaking and 30 minutes incubation at 30° C., flashplates were centrifuged for 5 minutes at 2500 rpm at room temperature. Flashplate bound radioactivity was determined by liquid scintillation counting. Basal GTPγS-binding was measured in 8 wells with membranes incubated in the same volume with 1% DMSO, without I-TAC. Maximal GTPγS-binding was measured in 8 wells with membranes incubated with 1% DMSO and 3 nM I-TAC. […] IC50 values were calculated using non-linear regression in Graphpad Prism.

pIC50	Compound
5.8	O=C1NCCCC1(c1ccccc1)C1CCN(Cc2ccc(Br)cc2)CC1 (centres unmarked) [Compound 142]
6.0	O=C1CCC(c2cccnc2)(C2CCN(Cc3ccc(Br)cc3)CC2)C(=O)N1 (centres unmarked) [Compound 178]

Same assay, conditions: -log IC50 (molar) inhibiting 50% of specific I-TAC-induced GTPγS-binding; membranes of human CXCR3-transfected CHO cells; read-out: pIC50 (converted)

IC50 [nM]	Compound
794	O=C1CCC(c2ccccc2)(C2CCN(Cc3ccc(Cl)c(Cl)c3)CC2)CN1 (centres unmarked) [Compound 140]
631	O=C1CCC(c2ccc(F)cc2)(C2CCN(Cc3ccc(Br)cc3)CC2)CN1 (centres unmarked) [Compound 143]
631	CC(c1ccc(Br)cc1)N1CCC(C2(c3ccc(F)cc3)CCC(=O)NC2)CC1 (centres unmarked) [Compound 144]
2510	O=C1CCC(c2ccccc2)(C2CCN(Cc3ccc(C(F)(F)F)cc3)CC2)CN1 (centres unmarked) [Compound 146]
6310	O=C1CCC(c2ccccc2)(C2CCN(Cc3ccc(OCc4ccc(Cl)cc4)cc3)CC2)CN1 (centres unmarked) [Compound 148]
5010	O=C1CCC(c2cccc(Cl)c2)(C2CCN(Cc3ccc4ccccc4c3)CC2)C(=O)N1 (centres unmarked) [Compound 149]
1000	O=C1CCC(c2ccc(F)cc2)(C2CCN(Cc3ccc4ccccc4c3)CC2)C(=O)N1 (centres unmarked) [Compound 150]
1260	O=C1CCC(c2ccc(F)cc2)(C2CCN(Cc3ccc(Cl)s3)CC2)C(=O)N1 (centres unmarked) [Compound 153]
2510	O=C1CCC(c2ccccc2)(C2CCN(Cc3cc(F)c(F)cc3F)CC2)C(=O)N1 (centres unmarked) [Compound 155]
794	O=C1CCC(c2ccc(F)cc2)(C2CCN(Cc3cc(F)c(F)cc3F)CC2)C(=O)N1 (centres unmarked) [Compound 156]
3160	O=C1CCC(c2ccc(F)cc2)(C2CCN(Cc3cc4cc(Br)ccc4o3)CC2)C(=O)N1 (centres unmarked) [Compound 161]
1000	CC(c1ccc(Br)cc1)N1CCC(C2(c3cccc(Cl)c3)CCC(=O)NC2=O)CC1 (centres unmarked) [Compound 164]

More lines, now with the values behind:

Compound	IC50 [nM]
O=C1CCC(c2ccc(F)cc2)(C2CCN(Cc3ccc(Cl)c(F)c3)CC2)CN1 (centres unmarked) [Compound 139]	1580
O=C1CCC(c2ccc(F)cc2)(C2CCN(Cc3ccc(Cl)c(Cl)c3)CC2)CN1 (centres unmarked) [Compound 141]	1580
Cc1cc(CN2CCC(C3(c4ccc(F)cc4)CCC(=O)NC3)CC2)ccc1Br (centres unmarked) [Compound 145]	794
O=C1CCC(c2ccc(F)cc2)(C2CCN(Cc3ccc(OC(F)F)cc3)CC2)CN1 (centres unmarked) [Compound 147]	3980
O=C1CCC(c2ccccc2)(C2CCN(Cc3ccc(Cl)s3)CC2)C(=O)N1 (centres unmarked) [Compound 151]	3160
O=C1CCC(c2cccc(Cl)c2)(C2CCN(Cc3ccc(Cl)s3)CC2)C(=O)N1 (centres unmarked) [Compound 152]	794
O=C1CCC(c2ccccc2)(C2CCN(Cc3ccc(Cl)s3)CC2)C(=O)N1 (centres unmarked) [Compound 154]	2510
Cc1cc(C)c(CN2CCC(C3(c4ccccc4)CCC(=O)NC3=O)CC2)c(C)c1 (centres unmarked) [Compound 157]	3160
O=C1CCC(c2ccccc2)(C2CCN(Cc3cc4cc(Br)ccc4o3)CC2)C(=O)N1 (centres unmarked) [Compound 158]	1260
O=C1CCC(c2cccc(C(=O)O)c2)(C2CCN(Cc3cc4cc(Br)ccc4o3)CC2)C(=O)N1 (centres unmarked) [Compound 160]	316
O=C1CCC(c2ccc(F)cc2)(C2CCN(Cc3ccc4nonc4c3)CC2)C(=O)N1 (centres unmarked) [Compound 163]	3980
CC(c1ccc(Br)cc1)N1CCC(C2(c3cccc(C(=O)O)c3)CCC(=O)NC2=O)CC1 (centres unmarked) [Compound 165]	794
O=C1CCC(c2ccncc2)(C2CCN(Cc3ccc(Cl)c(Cl)c3)CC2)C(=O)N1 (centres unmarked) [Compound 169]	1000
CC(c1ccc(Br)cc1)N1CCC(C2(c3ccncc3)CCC(=O)NC2=O)CC1 (centres unmarked) [Compound 171]	1580
O=C1CCC(c2ccncc2)(C2CCN(Cc3ccc(-c4ccccc4)cc3)CC2)C(=O)N1 (centres unmarked) [Compound 174]	5010
O=C1CCC(c2cccnc2)(C2CCN(Cc3ccc(F)c(F)c3F)CC2)C(=O)N1 (centres unmarked) [Compound 175]	1000
O=C1CCC(c2cccnc2)(C2CCN(Cc3ccc(Cl)c(F)c3)CC2)C(=O)N1 (centres unmarked) [Compound 176]	2000
O=C1CCC(c2cccnc2)(C2CCN(Cc3ccc(Cl)c(Cl)c3)CC2)C(=O)N1 (centres unmarked) [Compound 177]	1000
